Consider two compounds from US20090298848A1, “Methods and Compositions for Treating Barth Syndrome, Cardiomyopathy, Mitochondrial Diseases and Other Conditions” (CORTENDO INVEST AB,, priority 2006, published 2009).

In one data set the test system is plasma cholesterol. The data set is described as follows: Plasma cholesterol suppression in rats. The settings on record: 200 mg drug/kg body weight. Type of data set: in vivo.
For data set [1] the following is noted: normal volunteers, 200 mg dose of the racemic mixture, oral; cited from earlier work.
Data set [2] in a line: Oral pharmacokinetics in dogs.
The next data set deals with hepatic cardiolipin. The data set is described as follows: Measurement of hepatic cardiolipin following 91 days dosing in Beagle dogs. Particulars: male Beagle dogs, vs placebo. Type of data set: in vivo. The method, then:
Male Beagle dogs were treated with empty gelatin capsules (Placebo) or gelatin capsules containing sufficient 2S,4R enantiomer of ketoconazole to provide a dose of 20 mg/kg body weight. After 91 days of therapy, the amount of cardiolipin present in the livers of the dogs was determined. The amount of cardiolipin with fatty acids of the different indicated classes was determined independently. SFA, saturated fatty acids; MUFA, […] fatty acids; PUFA, poly-unsaturated fatty acid; n3, fatty acids in which the first double bond is at C3; n6, fatty acids in which the first double bond is at C6; n9, fatty acids in which the first double bond is at C9.
Male Beagle dogs were treated with empty gelatin capsules (Placebo) or gelatin capsules containing sufficient 2S,4R enantiomer of ketoconazole to provide a dose of 20 mg/kg body weight. After 91 days of therapy, the amount of cardiolipin present in the livers of the dogs was determined. The amount of cardiolipin with fatty acids of the different indicated classes was determined independently. The different classes are arranged according to the proportion that they are found in the placebo treated animals.
The effect of the 2S,4R enantiomer of ketoconazole enantiomers on cardiolipin levels in Beagle dogs was determined. The dogs were approximately 6-7 months of age at the initiation of the experiment and weighed 8-10 kg. To generate the results shown in FIGS. 1 and 2, eight male beagle dogs were used. Four of these dogs were dosed daily with an empty capsule, and four dogs were dosed with a gelatin capsule containing sufficient 2S,4R enantiomer of ketoconazole for each dog to receive 20 mg/kg body weight of the 2S,4R enantiomer of ketoconazole. The capsules were prepared weekly, placed in a labeled pill bottle and stored at 23° C.±3° C. until dispensed for dosing. […] Lipid content of the livers was determined using a combination of high pressure liquid chromatography (HPLC) and mass spectrometry. […]

The subject of another data set is corticosterone. The data set is described as follows: Serum corticosterone reduction after oral dosing in rats. Type of data set: in vivo. The settings on record: 200 mg drug/kg body weight, within 4 hours of oral dosing.
The nature of data set [3]: Toxicology of DIO-902 in dogs, oral dosing for 28 days. The settings on record: oral doses up to 20 mg/kg/day for 28 days.
A further data set has as its system testosterone. The data set is described as follows: Testosterone suppression after single dose in rats. Type of data set: in vivo.
For data set [4] the following is noted: cited from earlier work.
For data set [5] the following is noted: in vivo, cited from earlier work.
Where [6] appears, read: patients with Cushing's syndrome.

The structures appear in SMILES notation. Like-named read-outs stand apart in the source and are kept apart here.

For `CC(=O)N1CCN(c2ccc(OC[C@@H]3CO[C@@](Cn4ccnc4)(c4ccc(Cl)cc4Cl)O3)cc2)CC1` (relative stereo) [DIO-902, 2S,4R cis-1-acetyl-4-[4-[[2-(2,4-dichlorophenyl)-2-(1H-imidazol-1-ylmethyl)-1,3-dioxolan-4-yl]methoxyl]phenyl]piperazine], the plasma cholesterol entry in the data set with plasma cholesterol is recorded as “suppresses plasma cholesterol”. Moreover, in data set [1], the maximum plasma concentration entry is “approximately 3.6 μg/mL” and the “time of maximum plasma concentration” value was 2 h. In addition, in data set [2], the oral availability entry is on record as “orally available”. For the same compound, in the data set with hepatic cardiolipin (20 mg/kg body weight daily in gelatin capsule), the “amount of cardiolipin in the livers as a function of the liver wet weight” value is on record as “increased cardiolipin levels”. In addition, in the data set with hepatic cardiolipin (20 mg/kg), the “hepatic cardiolipin by fatty acid carbon chain length and bond number, FIG. 2” value was “able to increase the levels of cardiolipin that contain fatty acids of a wide variety of carbon chain length with different numbers of carbon bonds”; the “hepatic cardiolipin by fatty acid class (SFA, MUFA, PUFA, n3, n6, n9), FIG. 1” value is “able to increase the levels of cardiolipin that contain both saturated and unsaturated fatty acids”. In the data set on corticosterone, the serum corticosterone level is reported as 25 % of basal. For the same compound, in [3], the body weight entry is given as “reduction in body weight”; the cholesterol entry is recorded as “trend to a decrease in cholesterol”; the food intake result is on record as “reduction in food intake”; the “other serum chemistry and hematological parameters” value is reported as “no noted changes”. Also, in the data set with testosterone (200 mg drug/kg body weight), the “time for testosterone levels to return to normal” value was ≤ 8 h and the “time to testosterone suppression after dosing” value is listed as “within four hours”. In the data set with testosterone (single dose 200 mg drug/kg body weight), the testosterone level is 10 % of basal.

As for `CC(=O)N1CCN(c2ccc(OCC3COC(Cn4ccnc4)(c4ccc(Cl)cc4Cl)O3)cc2)CC1` (racemic) [racemic ketoconazole, 1-acetyl-4-[4-[[2-(2,4-dichlorophenyl)-2-[(1H-imidazol-1-yl)-methyl]-1,3-dioxolan-4-yl]methoxy]phenyl]piperazine], in data set [4] (human, in vivo), the cortisol synthesis result is given as “inhibits cortisol synthesis” and the plasma cortisol result is reported as “decrease plasma cortisol”. Further, in [4] (humans (Sonino et al. 1991; Gylling et al. 1993)), the “cholesterol levels in humans” value was “lower cholesterol levels”. Besides, in data set [4] (setting [6]), the blood pressure result was “reduces”, the cholesterol result is “reduces” and the glucose entry is on record as “reduces”. Further, in data set [5], the “1,25 dihydroxy Vitamin D” value is “reduces”, the hepatotoxicity result is recorded as “associated with hepatotoxicity” and the testosterone entry is “reduces”. Besides, the hepatotoxicity entry in data set [5] (listed as racemic mixture) is “can cause hepatoxicity”.
